Assay results reported in publication PMC10689823, “Discovery of a Drug-like, Natural Product-Inspired DCAF11 Ligand Chemotype” (Nature Communications, 2023).

Target: BRD4S-TagBFP reporter (Homo sapiens, UniProt O60885)
Experiment: FACS-based CRISPR/Cas9 BRD4 protein stability screen
Description: The virus containing supernatant was cleared of cellular debris by filtration through a 0.45-µm PES filter and used to transduce KBM7 BRD4-BFP reporter cells harboring a doxycycline inducible Cas9 allele at a multiplicity of infection (MOI) of 0.05 and 1,000-fold library representation. Library-transduced cells were selected with G418 (1 mg ml^−1, Gibco) for 14 days, expanded and Cas9 expression was induced with DOX (0.4 µg ml^−1, PanReac AppliChem).
Cells were washed with and stored in FACS buffer (PBS containing 5% FBS and 1 mM EDTA) at 4 °C overnight. The next day, cells were strained trough a 35 µm nylon mesh and sorted on a BD FACSAria™ Fusion (BD Biosciences) using a 85 µm nozzle. Aggregates, dead (ZombieNIR positive), Cas9-negative (GFP) and sgRNA library-negative (Thy1.1-APC) cells were excluded, and the remaining cells were sorted based on their BRD4-BFP and mCherry levels into BRD4^HIGH (10% of cells), BRD4^MID (30%) and BRD4^LOW (10%) fractions. For each sample, cells corresponding to at least 2,000-fold library representation were sorted per replicate.
Next-generation sequencing (NGS) libraries of sorted cell fractions were prepared as previously described[25]. In brief, genomic DNA was isolated by cell lysis (10 mM Tris-HCl, 150 mM NaCl, 10 mM EDTA, 0.1% SDS), proteinase K treatment (New England Biolabs) and DNAse-free RNAse digest (Thermo Fisher Scientific), followed by two rounds of phenol extraction and 2-propanol precipitation. Isolated genomic DNA was subjected to several freeze–thaw cycles before nested polymerase chain reaction (PCR) amplification of the sgRNA cassette.
Barcoded NGS libraries for each sorted population were generated using a two-step PCR protocol using AmpliTaq Gold (Invitrogen). The resulting PCR products were purified using Mag-Bind® TotalPure NGS beads (Omega Bio-tek) and amplified in a second PCR introducing the standard Illumina adapters. The final Illumina libraries were bead-purified, pooled and sequenced on a HiSeq 3500 platform (Illumina).
Screen analysis was performed as previously described[25]. Briefly, sequencing reads were quantified using the crispr-process-nf Nextflow workflow, available at https://github.com/ZuberLab/crispr-process-nf/tree/566f6d46bbcc2a3f49f51bbc96b9820f408ec4a3. For statistical analysis, we used the crispr-mageck-nf Nextflow workflow, available at https://github.com/ZuberLab/crispr-mageck-nf/tree/c75a90f670698bfa78bfd8be786d6e5d6d4fc455. To calculate gene-level enrichment, the sorted populations (BRD4^HIGH or BRD4^LOW) were compared to the BRD4^MID populations in MAGeCK (0.5.9)[46], using median normalized read counts.

`Cc1sc2c(c1C)C(c1ccc(Cl)cc1)=NC(CC(=O)NCCOCCOCCOCCOc1c(Br)cc(C=C3C(=O)Nc4ccc(Br)cc43)cc1Br)c1nnc(C)n1-2` (centres unmarked) [Compound 10] was tested, and the Low_logP (Gene FBXO39, Mageck_Gene level) was 0.18, the “CRL substrate receptor scoring as top hit (gene required for BRD4 degradation)” value (KBM7 BRD4-BFP reporter cells, 9 0.5 µM, 10 1 µM, dBET6 10 nM, 6 hours) was “DCAF11” and the High_lfc (gene FBXO3) was 0.34. The High_logP (gene FBXO3) was 0.33, the Low_lfc (gene FBXO3) was -0.08 and the Low_logP (gene FBXO3) was 0.04. The High_lfc (gene FBXO4) was 0.05, the High_logP (gene FBXO4) was 0.31 and the Low_lfc (gene FBXO4) was -0.07. It also gave a Low_logP (gene FBXO4) of 0.01, a High_lfc (gene FBXO5) of 0.23 and a High_logP (gene FBXO5) of 0.83. For the same compound, the Low_lfc (gene FBXO5) was -0.27, the Low_logP (gene FBXO5) was 0.05 and the High_lfc (gene FBXO6) was -0.06. The High_logP (gene FBXO6) was 0.34, the Low_lfc (gene FBXO6) was -0.26 and the Low_logP (gene FBXO6) was 0.15. The High_lfc (gene FBXO7) was -0.21, the High_logP (gene FBXO7) was 0 and the Low_lfc (gene FBXO7) was -0.1. The Low_logP (gene FBXO7) was 0.14, the High_lfc (gene FBXO8) was -0.41 and the High_logP (gene FBXO8) was 0.01. It also gave a Low_lfc (gene FBXO8) of -0.3, a Low_logP (gene FBXO8) of 0.02 and a High_lfc (gene FBXO9) of -0.11. It also gave a High_logP (gene FBXO9) of 0.02, a Low_lfc (gene FBXO9) of -0.13 and a Low_logP (gene FBXO9) of 0.09. The High_lfc (gene FBXO40) was -0.14, the High_logP (gene FBXO40) was 0.09 and the Low_lfc (gene FBXO40) was -0.23. For the same compound, the Low_logP (gene FBXO40) was 0.3, the High_lfc (gene FBXO41) was 0.03 and the High_logP (gene FBXO41) was 0.17. It also gave a Low_lfc (gene FBXO41) of -0.11, a Low_logP (gene FBXO41) of 0.05 and a High_lfc (gene FBXO42) of 0.02. The High_logP (gene FBXO42) was 0.05, the Low_lfc (gene FBXO42) was 0.34 and the Low_logP (gene FBXO42) was 1.46. The High_lfc (gene FBXO43) was -0.17, the High_logP (gene FBXO43) was 0.11 and the Low_lfc (gene FBXO43) was -0.15. It also gave a Low_logP (gene FBXO43) of 0.08, a High_lfc (gene FBXO44) of -0.16 and a High_logP (gene FBXO44) of 0.39. It also gave a Low_lfc (gene FBXO44) of -0.37, a Low_logP (gene FBXO44) of 0.19 and a High_lfc (gene FBXO45) of -0.07. The High_logP (gene FBXO45) was 0.11, the Low_lfc (gene FBXO45) was -0.31 and the Low_logP (gene FBXO45) was 0.11. For the same compound, the High_lfc (gene FBXO46) was -0.12, the High_logP (gene FBXO46) was 0.12 and the Low_lfc (gene FBXO46) was 0.18. The Low_logP (gene FBXO46) was 0.84, the High_lfc (gene FBXO47) was 0.35 and the High_logP (gene FBXO47) was 0.59. The Low_lfc (gene FBXO47) was 0.65, the Low_logP (gene FBXO47) was 1.14 and the High_lfc (gene FBXO48) was -0.14. For the same compound, the High_logP (gene FBXO48) was 0.09, the Low_lfc (gene FBXO48) was -0.68 and the Low_logP (gene FBXO48) was 0.01. For the same compound, the High_lfc (gene FBXW2) was -0.16, the High_logP (gene FBXW2) was 0.05 and the Low_lfc (gene FBXW2) was -0.15. For the same compound, the Low_logP (gene FBXW2) was 0.23, the High_lfc (gene FBXW4) was -0.23 and the High_logP (gene FBXW4) was 0.02. The Low_lfc (gene FBXW4) was 0.1, the Low_logP (gene FBXW4) was 0.3 and the High_lfc (gene FBXW5) was -0.14. It also gave a High_logP (gene FBXW5) of 0.29, a Low_lfc (gene FBXW5) of 0.04 and a Low_logP (gene FBXW5) of 0.25. For the same compound, the High_lfc (gene FBXW7) was 0.42, the High_logP (gene FBXW7) was 1.76 and the Low_lfc (gene FBXW7) was 0.03. For the same compound, the Low_logP (gene FBXW7) was 0.22, the High_lfc (gene FBXW8) was -0.01 and the High_logP (gene FBXW8) was 0.23. It also gave a Low_lfc (gene FBXW8) of 0.37, a Low_logP (gene FBXW8) of 0.66 and a High_logP (gene FBXW9) of 0.71. It also gave a Low_logP (gene FBXW9) of 1.01, a High_lfc (gene FBXW10) of -0.01 and a High_logP (gene FBXW10) of 0.15. It also gave a Low_lfc (gene FBXW10) of -0.13, a Low_logP (gene FBXW10) of 0.01 and a High_lfc (gene FBXW11) of -0.15. The High_logP (gene FBXW11) was 0.05, the Low_lfc (gene FBXW11) was -0.16 and the Low_logP (gene FBXW11) was 0.14. The High_lfc (gene FBXW12) was -0.01, the High_logP (gene FBXW12) was 0.11 and the Low_lfc (gene FBXW12) was 0.06. The Low_logP (gene FBXW12) was 0.36 and the High_logP (gene FEM1A) was 0.33.
